Laboratory results reported in publication PMC3016232 (Cancer Chemotherapy and Pharmacology, 2010).
Each block holds one compound with its values, some of them ahead of it.

Legend:
[1] = clinical; type: in vivo, human
[2] = type: in vivo, human
[3] = test system: UGT1A; test: Formation of SN-38G from SN-38 in pooled human liver microsomes; type: in vitro ADME; conditions: SN-38 5 μM, 30 min, microsomal protein 0.8 mg/mL
[4] = test system: UGT1A1 mRNA; test: UGT1A1 mRNA levels in HCT116 cells by quantitative RT-PCR; type: cell-based, human; conditions: HCT 116 cells; methimazole 25–100 μM; up to ~48 h
[5] = mean of the courses with or without methimazole, plasma
[6] = courses with methimazole, plasma
[7] = courses without methimazole, plasma

SMILES: CCc1c2c(nc3ccc(OC(=O)N4CCC(NCCCCC(=O)O)CC4)cc13)-c1cc3c(c(=O)n1C2)COC(=O)C3(O)CC (centres unmarked) [APC, 7-Ethyl-10-[4-N-(5-aminopentanoic acid)-1-piperidino]-carbonyloxy-camptothecin]
mean exposure (AUC) to APC [1, 5]: 3,018 ng × h/mL

SMILES: CCc1c2c(nc3ccc(OC(=O)N4CCC(N)CC4)cc13)-c1cc3c(c(=O)n1C2)COC(=O)[C@]3(O)CC [NPC, 7-Ethyl-10-[4-amino-1-piperidino]-carbonyloxycamptothecin]
mean exposure (AUC) to NPC [1, 5]: 32.3 ng·h/mL

SMILES: CCc1c2c(nc3ccc(O)cc13)-c1cc3c(c(=O)n1C2)COC(=O)[C@]3(O)CC [SN-38, 7-Ethyl-10-hydroxy camptothecin]
mean relative extent of glucuronidation (ratio of SN-38G over SN-38) ([1]; courses with methimazole): 10.1 | mean SN-38 AUC [1, 6]: 125 ng·h/mL | mean relative extent of glucuronidation (ratio of SN-38G over SN-38) ([1]; courses without methimazole): 6.85 | mean SN-38 AUC [1, 7]: 110 ng·h/mL

SMILES: CCc1c2c(nc3ccc(O[C@@H]4O[C@H](C(=O)O)[C@@H](O)[C@H](O)[C@H]4O)cc13)-c1cc3c(c(=O)n1C2)COC(=O)[C@]3(O)CC [SN-38G]
mean SN-38G AUC [1, 6]: 1,255 ng × h/mL | mean SN-38G AUC [1, 7]: 753 ng·h/mL

mean absolute neutrophil count nadir ([2]; mean of all courses): 4.2e+09 L⁻¹ | AUC ([1]; male, human, in vivo): 16100 ng·h/mL
SMILES: CCc1c2c(nc3ccc(OC(=O)N4CCC(N5CCCCC5)CC4)cc13)-c1cc3c(c(=O)n1C2)COC(=O)[C@]3(O)CC [irinotecan]
Irinotecan-related toxicity ([2]; all courses): mild

SMILES: CC(=O)N1CCN(c2ccc(OCC3COC(Cn4ccnc4)(c4ccc(Cl)cc4Cl)O3)cc2)CC1 (centres unmarked) [ketoconazole]
reduction of SN-38G formation ([3]; ketoconazole 25 μM): 43%

SMILES: Cn1cc[nH]c1=S [methimazole]
induction of UGT1A1 mRNA levels compared to untreated control cells [4]: 15–18 fold | effect on SN-38G formation ([3]; methimazole 37.5 μM): did not decrease
